From PMC8474110 (Journal of Medicinal Chemistry, 2021)
Like-named read-outs stand apart in the source and are kept apart here.

What was measured:
[1] = system: HREC; experiment: MTT viability test on HREC; format: cell-based; conditions: Homo sapiens
Description: To dissect enantiomer contributions to antiangiogenic effects by (±)-1, compounds (+)-1 and (−)-1 were evaluated on HREC, an endothelial cell model of angiogenesis.[40] First, HREC viability was assessed by the 3-[4,5–dimethylthiazol-2-yl]-2,5-diphenyltetrazolium bromide (MTT) assay to verify the tolerability of the enantiomers, and different concentrations (1.0, 2.5, 5.0, 10.0, and 20.0 μM) of the compounds were tested for 24, 48, and 72 h. The IC50 values of (+)-1 and (−)-1 were calculated and compared to (±)-1 and its precursors (Table 3).
For cell viability assays, the 3-[4,5–dimethylthiazol-2-yl]-2,5-diphenyltetrazolium bromide (MTT assay, Chemicon, Temecula, CA) was used. The cells were seeded in 96-well plates at a density of 1.5 × 10^4 cells/well and were incubated overnight at 37 °C before the experiment. Afterward, the cells were treated for 24, 48, and 72 h in the presence of different concentrations (1.0, 2.5, 5.0, 10.0, 20.0 μM) of (±)-1, (+)-1, or (−)-1. After the treatments, the cells were incubated with MTT (5 mg/mL) for 3 h, and then 100 μL of dimethyl sulfoxide was added, and the absorbance was read in a plate reader (Synergy 2-BioTek) with a wavelength of 570 nm.

[2] = target: T1, σ2 receptor (Cavia porcellus, UniProt H0V073); experiment: σ2 receptor binding assay, [3H]-DTG, guinea pig brain membranes
T1 construct: the guinea pig brain membranes (300 μL, 360 μg protein) were incubated for 120 min at room temperature with 3 nM [^3H]-DTG; from tissue; host or cells: guinea pig brain membranes
T1 sequence (H0V073 1-176): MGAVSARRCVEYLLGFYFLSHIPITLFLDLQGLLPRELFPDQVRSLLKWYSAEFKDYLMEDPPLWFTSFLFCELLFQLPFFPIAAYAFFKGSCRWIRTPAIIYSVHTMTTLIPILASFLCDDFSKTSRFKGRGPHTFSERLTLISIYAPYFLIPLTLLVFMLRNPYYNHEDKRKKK
Description: (§1) The σ1 and σ2 receptor binding studies were performed according to the literature.[46],[47] Briefly, for the σ1 receptor binding assay, guinea pig brain membranes (400 μL, 500 μg protein) were incubated for 150 min at 37 °C with 3 nM of the radiolabeled ligand [^3H]-(+)-pentazocine (45 Ci/mmol) and increasing concentrations of tested compounds in 50 mM Tris-HCl (pH 7.4) to a total volume of 1 mL. […] Moreover, σ2 receptor binding assays were made according to the following protocol: the guinea pig brain membranes (300 μL, 360 μg protein) were incubated for 120 min at room temperature with 3 nM [^3H]-DTG (31 Ci/mmol) in the presence of 0.4 mM […] (+)-SKF10,047 to block the σ1 sites. The incubation was performed in 50 mM Tris-HCl (pH 8.0) to a total volume of 0.5 mL with increasing concentrations of each test compound. Nonspecific binding was evaluated in the presence of 5 μM DTG.
(§2) Each sample was filtered through Whatman GF/B glass fiber filters, which were presoaked for 1 h in a 0.5% poly(ethylenimine) solution, using a Millipore filter apparatus. Filters were washed twice with 4 mL of ice-cold buffer. Radioactivity was counted in 4 mL of “Ultima Gold MV” in a 1414 WinSpectral PerkinElmer Wallac or Beckman LS6500 scintillation counter. Inhibition constants (Ki values) were calculated using the EBDA/LIGAND program purchased from Elsevier/Biosoft.

[3] = target: T2, σ1 receptor (Cavia porcellus, UniProt Q60492); experiment: σ1 receptor binding assay, [3H]-(+)-pentazocine, guinea pig brain membranes
T2 construct: from tissue; host or cells: guinea pig brain membranes
T2 sequence (Q60492 whole entry): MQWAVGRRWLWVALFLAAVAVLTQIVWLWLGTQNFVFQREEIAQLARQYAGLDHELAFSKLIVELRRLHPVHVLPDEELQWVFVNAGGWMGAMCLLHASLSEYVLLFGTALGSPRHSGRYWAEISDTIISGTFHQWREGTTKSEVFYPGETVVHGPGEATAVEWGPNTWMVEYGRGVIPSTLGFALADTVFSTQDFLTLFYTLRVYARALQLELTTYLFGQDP
Description: as §1, §2

[4] = system: HREC stimulated with VEGF-A; experiment: Wound healing assay (cell motility) in HREC stimulated by VEGF-A; format: cell-based, human; conditions: 48 h; for effect of AC927 cotreatment on the compound's inhibition of VEGF-A-mediated HREC motility: 5 μM compound + 2 μM AC927, 80 ng/mL VEGF-A; for effect of PTZ cotreatment on the compound's inhibition of VEGF-A-mediated HREC motility: 5 μM compound + 2 μM PTZ
Description: Unregulated stimulation of endothelial cell motility by VEGF-A underlies pathological angiogenesis.[41] Therefore, the effects of (±)-1, (+)-1, and (−)-1 on HREC motility stimulated by VEGF-A (80 ng/mL) were evaluated with the wound healing assays (Figures 3 and S3–S5). VEGF-A promoted HREC migration compared to untreated controls, inducing complete wound closures at 24 h (Figures S3–S5). […] Cotreatments with both AC927 and PTZ reduced (±)-1 and (+)-1 abilities to inhibit VEGF-A-mediated wound healing (Figure 3A,B). […] The representative images of HREC treated with VEGF-A and three prodrug derivatives after the scratch wound are shown in the Supporting Information (Figures S2–S4A).
HREC and 92-1 cells (2.5 × 10^5 cells/well) were seeded into 24 well plates and grown to confluency. Confluent cell monolayers were scratched with a p200 pipet tip to create 1 mm wide wounds. After washing (three times) with PBS to remove cell debris, wounded monolayers were incubated for 48 h (37 °C) in the complete medium in the presence of the indicated treatments. HREC were treated for 48 h in the presence of (±)-1, (+)-1, or (−)-1 with or without VEGF-A (80 ng/mL), AC927, and PTZ. 92-1 cells were treated for 48 h in the presence of (±)-1, (+)-1, or (−)-1. Wound closure was monitored by photographs at 40X using a phase-contrast microscope in each culture condition and at each time point (0, 24, and 48 h for HREC and 0, 6, 24, 30, and 48 h for 92-1 cells). The numbers of cells toward the wounds were counted using ImageJ software (ImageJ 1.50e, National Institutes of Health, NIH, Bethesda, MD) and were quantified by measuring the distance traveled over time by both cell fronts into the wound area.

[5] = Enzymatic stability (kinetics of enzymatic hydrolysis) in human plasma; format: in vitro ADME; conditions: human plasma (80%), 37 °C; for half-life at 3.8 µM: pH 7.4, read-out: t1/2, enzymatic stability (converted)
Description: Enzymatic stability studies in rat and human plasma were performed for both the racemate and its enantiomers (Table 1). […] Considering the high stability of (±)-1 and its enantiomers in simulated physiological fluids and human plasma, these compounds could reach the target site without undergoing esterase metabolism.
Human plasma was purchased from 3H Biomedical (Uppsala, Sweden, Europe). Plasma aliquots (4 mL) were diluted with 0.02 M PBS (pH 7.4) to obtain a final volume of 5 mL containing 80% plasma. Studies were performed at 37 ± 0.5 °C using a shaking bath. Each experiment was started by adding a 10^–4 M drug stock solution (200 μL) to the preheated plasma. Hundred microliters of the thermostated medium was taken at various times, treated with cold methanol (500 μL) to precipitate plasma proteins, and centrifugated (5 min at 5000g). The supernatant was analyzed by HPLC to quantify the amount of the residual intact compound.

[6] = system: HREC; conditions: cited from earlier work
[7] = 24 h, read-out: IC50, MTT viability test on HREC
[8] = 24 h, read-out: pIC50 ± SE, MTT viability test on HREC (converted)
[9] = 48 h, read-out: IC50, MTT viability test on HREC
[10] = 48 h, read-out: pIC50 ± SE, MTT viability test on HREC (converted)
[11] = 72 h, read-out: IC50, MTT viability test on HREC
[12] = 72 h, read-out: pIC50 ± SE, MTT viability test on HREC (converted)

Row | Compound | IC50 [1, 7] [µM] | IC50 [1, 8] [µM] | IC50 [1, 9] [µM] | IC50 [1, 10] [µM] | IC50 [1, 11] [µM] | IC50 [1, 12] [µM] | Ki [2] [µM] | Ki [3] [µM] | effect of AC927 cotreatment on the compound's inhibition of VEGF-A-mediated HREC motility [4] | effect on VEGF-A-mediated HREC migration (wound healing) ([4]; 5 μM, 80 ng/mL VEGF-A) | Kobs, enzymatic stability [5] [h^–1] | half-life at 3.8 µM [5] [h] | pIC50 ± SE, MTT viability test on HREC ([6]; 24 h) | pIC50 ± SE, MTT viability test on HREC ([6]; 48 h) | pIC50 ± SE, MTT viability test on HREC ([6]; 72 h) | effect of PTZ cotreatment on the compound's inhibition of VEGF-A-mediated HREC motility ([4]; 80 ng/mL VEGF-A)
1 | CCCC(CCC)C(=O)O[C@@H](CCCN1CCC(O)(c2ccc(Cl)cc2)CC1)c1ccc(F)cc1 [(−)-1] | 10.1 | 10.7 | 9 | 9.12 | 6.8 | 6.92 | 0.056 ± 0.0064 | 0.016 ± 0.0017 | prevented, in part | highest reduction | 0.01 ± 0.002 | 70.3 ± 1.5 | – | – | – | –
2 | CCCC(CCC)C(=O)OC(CCCN1CCC(O)(c2ccc(Cl)cc2)CC1)c1ccc(F)cc1 (racemic) [(±)-1] | – | – | – | – | – | – | – | – | significantly, but partially, opposed | – | 0.011 ± 0.006 | 60.5 ± 0.6 | 4.98 ± 0.02 | 4.95 ± 0.03 | 4.99 ± 0.04 | significantly, but partially, opposed
3 | CCCC(CCC)C(=O)O[C@H](CCCN1CCC(O)(c2ccc(Cl)cc2)CC1)c1ccc(F)cc1 [(+)-1] | 9.8 | 9.77 | 6.4 | 6.46 | 4.4 | 4.47 | 0.074 ± 0.0089 | 0.064 ± 0.0082 | reduced | – | 0.012 ± 0.001 | 58.2 ± 1.2 | – | – | – | significantly and completely blocked
